Results on five molecules are retold here after patent US4039666A, “Anticonvulsant phenylsilanes” (Dow Corning Corporation, priority 1976, dated 1977).

Where two headings read alike, the source gives them in different places. Bounds are passed on as bounds.

In data set [1] the test system is mice. Kind of data set: Potentiation of hexobarbital sleep time (relative sedative activity). To be noted: Table I; 316 mg/kg test compound oral, 90 minutes before hexobarbital 100 mg/kg i.p. Type of data set: in vivo, mice (male, Carworth CF1 strain). How it is done:
As a test of relative sedative activity of the various silanes, the ability of each to potentiate the action of hexobarbital was studied. For each silane, two groups of male mice (Carworth CF1 strain) were utilized as test animals. Two groups of mice (six/group) were used, one group was orally dosed with 316 mg./kg. of the test silane in sesame oil carrier 90 minutes before administration of hexobarbital. Hexobarbital was administered by intraperitoneal injection of 100 mg./kg. in saline carrier. The time from loss of the righting reflex to recovery of the righting reflex was recorded as sleep time. Potentiation of hexobarbital of the test silane is the ratio of the mean sleep time by the group of test animals dosed with the silane divided by the mean sleep time of the control group not dosed with silane.
^4 Potentiation of hexobarbital - values are the ratios of sleep time
of animals dosed with 316 mg/kg test compound plus 100 mg/kg hexobarbital
to the sleep times of animals dosed with hexobarbital alone.

The nature of data set [2]: Acute oral LD50. Type of data set: in vivo, mice (male, 25 gm.). To be noted: mouse, in vivo; Table II; male mice, oral in sesame oil, highest dose 5000 mg/kg, observed 14 days, Finney's method; read-out: LD50 (95% Confidence Interval). How it is done:
(§1) ^1 Male mice, 25 gm. were used. Each compound was
(§2) given orally in sesame oil at doses ranging from
(§3) highest dose was 5000 mg/kg. The mice were
(§4) observed for 14 days and the number of deaths
(§5) was recorded. LD50 values were calculated by […]

The subject of data set [3] is mice. The data set is described as follows: Electroshock test (Maximal Electroshock Test, M.E.S.), inhibition of tonic extension of hind limbs. Type of data set: in vivo, mice (adult male, Carworth CF 1 strain). To be noted: for ED50: Mus musculus. How it is done:
The electroshock test procedure was used to determine anticonvulsant activities of diphenylmethylsilanol. Adult male mice (Carworth CF 1 strain) were utilized as test animals. […] Seizure protection was scored as inhibition of tonic extension. Groups of mice (six/group) were dosed orally with varying amounts of diphenylmethylsilanol in a sesame oil suspension. The dosages ranged from 10 to 1000 mg./kg. and the train of electric shocks was applied 2, 4 and 6 hours after dosing. The effective dose to prevent convulsions in half the animals (ED50) was determined at 2, 4 and 6 hours to be 52, 63, 100 mg/kg, respectively, and the 95 percent CI (confidence interval) was 23 to 114 mg./kg.; 27 to 141 mg./kg.; 47 to 212 mg./kg.
The electric shock test procedure was also used to determine anticonvulsant activities of phenylmethyldimethoxysilane. Adult male mice (Carworth CF 1 strain) were utilized as test animals. […] Seizure protection was scored as in Example 1. Groups of mice ten/group) were dosed orally with varying amounts of phenylmethyldimethoxysilane in a sesame oil solution. The dosages ranged from 25 to 200 mg./kg. and the train of electric shocks was applied 1/2, 1, 11/2, 2 and 3 hours after dosing. The effective dose to prevent convulsions in half the animals (ED50) was determined at 1/2, 1, 11/2, 2 and 3 hours to be 52, 86, 64, 82 and 90 mg./kg., respectively. Utilizing the same electroshock test procedure as set forth in the first paragraph of this example, groups of mice (ten/group) were dosed intraperitoneally with varying amounts of phenylmethyldimethoxysilane in a sesame oil solution. The dosages ranged from 25 to 200 mg./kg. and the train of electric shocks was applied 1/2, 1, 11/2, 2 and 3 hours after dosing. The effective dose to prevent convulsions in half the animals (ED50) was determined at 1/2, 1, 11/2, 2 and 3 hours to be 45, 65, 52, 51 and 70 mg./kg., respectively.
The electric shock test used in Example 1 and 2 was used in determining the anticonvulsant activities of several other silanes.
(§6) ^1 The test silane was administered orally in sesame oil vehicle at
^2 M.E.S. - Maximal Electroshock Test - ED50 is dose calculated
to protect 50% of mice from tonic extensor convulsion. The dosages ranged

Data set [4] relates to mice. Kind of data set: Protection vs. pentylenetetrazol clonic convulsions. In kind it is in vivo. To be noted: Table I, 316 mg/kg test compound, oral in sesame oil, pentylenetetrazol 80 mg/kg s.c., n.p. = no protection observed. How it is done:
as §6
^3 Pentylenetetrazol 80 mg/kg s.c. produces clonic convulsions in 90%
of control mice. Values in table are the numbers of mice protected from
clonic convulsion/number tested when dosed with 316 mg/kg test compound.

Data set [5] concerns mice. Kind of data set: Acute oral LD50. To be noted: Table II footnote 2; oral in sesame oil, up to 5000 mg/kg, 14 days. Type of data set: in vivo, mice (male, 25 gm.). How it is done: as §1, §2, §3, §4, §5
Setting [6] is: Table I, oral, sesame oil, 2 hours after dosing, n.p. = no protection observed, read-out: MES ED50.
The mark [7] stands for this setting: Table I, oral, sesame oil, 4 hours after dosing, read-out: MES ED50.
[8] abbreviates: Table I, oral, sesame oil, 6 hours after dosing, read-out: MES ED50.

As usually defined, the LD50 is the dose at which mortality reaches 50%. For orientation: ED50 means the dose that gives a 50% effect, or the effect in half of the subjects. On to `CCO[Si](OCC)(OCC)c1ccccc1` [.phi.Si(OCH2 CH3)3], for which the “Potentiation of Hexobarbital (ratio of sleep time with test compound to hexobarbital alone)” value in data set [1] is on record as 2.1. In data set [2], the LD50 at 336 h was determined as 5140 mg/kg. In addition, the ED50 in data set [3] (setting [6]) stood at 170 mg/kg; in data set [3] (setting [7]), 31 mg/kg; in data set [3] (setting [8]), 220 mg/kg. Besides, the “Protection vs. Pentylenetetrazol (numbers of mice protected from clonic convulsion/number tested)” value in data set [4] was “n.p”.
As for `CC(C)O[Si](OC(C)C)(OC(C)C)c1ccccc1` [drawing 12; X=OCH(CH3)2], the “Potentiation of Hexobarbital (ratio of sleep time with test compound to hexobarbital alone)” value in data set [1] came out at 2.1. For the same molecule, the values for the median effective dose (ED50) in data set [3] (setting [7]) and in data set [3] (setting [8]) were > 1000 mg/kg and 800 mg/kg, respectively. The “MES ED50” value in data set [3] (Table I, oral, sesame oil, 2 hours after dosing, n.p. = no protection observed) is given as “n.p”. Besides, the “Protection vs. Pentylenetetrazol (numbers of mice protected from clonic convulsion/number tested)” value in data set [4] was “n.p”.
With `CCO[Si](C)(C)c1ccccc1` [drawing 14], the LD50 at 336 h in data set [2] is 5380 mg/kg.
For `C[Si](O)(c1ccccc1)c1ccccc1` [drawing 15], the 50% lethal dose (LD50) at 336 h in data set [2] is > 5000 mg/kg. For the same molecule, the “deaths observed at any dose level used” value in data set [5] is “No deaths were observed”.
As for `CO[Si](C)(OC)c1ccccc1` [phenylmethyldimethoxysilane], the “Potentiation of Hexobarbital (ratio of sleep time with test compound to hexobarbital alone)” value in data set [1] came to 1.2. In addition, the ED50 in data set [3] (0.5 h, Example 2, oral, sesame oil solution, 1/2 hour after dosing, ten mice/group, read-out: effective dose to prevent convulsions in half the animals (ED50)) came to 52 mg/kg; in data set [3] (1.5 h, Example 2, oral, sesame oil solution, 11/2 hours after dosing, ten mice/group, read-out: effective dose to prevent convulsions in half the animals (ED50)), 64 mg/kg; in data set [3] (ip, 0.5 h, Example 2, intraperitoneal, sesame oil solution, 1/2 hour after dosing, ten mice/group, read-out: effective dose to prevent convulsions in half the animals (ED50)), 45 mg/kg; in data set [3] (ip, 1.5 h, Example 2, intraperitoneal, sesame oil solution, 11/2 hours after dosing, ten mice/group, read-out: effective dose to prevent convulsions in half the animals (ED50)), 52 mg/kg; in data set [3] (ip, Example 2, intraperitoneal, sesame oil solution, 1 hour after dosing, ten mice/group, read-out: effective dose to prevent convulsions in half the animals (ED50)) it was 65 mg/kg; in data set [3] (ip, Example 2, intraperitoneal, sesame oil solution, 2 hours after dosing, ten mice/group, read-out: effective dose to prevent convulsions in half the animals (ED50)), 51 mg/kg. The ED50 is 70 mg/kg in data set [3] (ip, Example 2, intraperitoneal, sesame oil solution, 3 hours after dosing, ten mice/group, read-out: effective dose to prevent convulsions in half the animals (ED50)); 86 mg/kg in data set [3] (Example 2, oral, sesame oil solution, 1 hour after dosing, ten mice/group, read-out: effective dose to prevent convulsions in half the animals (ED50)); 82 mg/kg in data set [3] (Example 2, oral, sesame oil solution, 2 hours after dosing, ten mice/group, read-out: effective dose to prevent convulsions in half the animals (ED50)); 90 mg/kg in data set [3] (Example 2, oral, sesame oil solution, 3 hours after dosing, ten mice/group, read-out: effective dose to prevent convulsions in half the animals (ED50)); 56 mg/kg in data set [3] (setting [6]); 50 mg/kg in data set [3] (setting [7]). In addition, the ED50 in data set [3] (setting [8]) stood at 106 mg/kg. Further, in data set [4] (Mus musculus, read-out: Protection vs. Pentylenetetrazol (numbers of mice protected from clonic convulsion/number tested) (converted)), the responders at 316 mg/kg is 33.3%.
